Where two headings read alike, the source gives them in different places. No end group written: not given here.
Key:
[1] = functional antagonists known not to cause PE response, cited from earlier work
[2] = target: T1, MC1-R (Mus musculus, UniProt Q01727); assay: Competitive inhibition assay using [I^125]-NDP-α-MSH, B-16 mouse melanoma cell membranes; format: binding; settings: for inhibition at 1 µM: 1 μM test compound, read-out: Inhibition at 1 μM (NDP-α-MSH) In Normal System, MC1-R; for Ki: read-out: Ki (nM) (NDP-α-MSH) In Normal System, MC1-R
T1 construct: B-16 mouse melanoma cells (containing MC1-R); endogenous in cells
T1 sequence (Q01727 whole entry): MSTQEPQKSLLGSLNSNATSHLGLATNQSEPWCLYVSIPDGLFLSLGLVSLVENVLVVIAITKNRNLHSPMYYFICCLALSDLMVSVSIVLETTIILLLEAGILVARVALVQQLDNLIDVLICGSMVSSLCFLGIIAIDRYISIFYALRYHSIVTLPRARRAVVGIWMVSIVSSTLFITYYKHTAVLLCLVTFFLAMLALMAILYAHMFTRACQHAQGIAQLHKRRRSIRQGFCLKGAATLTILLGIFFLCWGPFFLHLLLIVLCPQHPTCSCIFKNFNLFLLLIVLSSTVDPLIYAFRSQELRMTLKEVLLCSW
Summary of the method: (§1)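 Tracer was 0.4 nM for MC3-R and MC5-R, 0.2 nM for MC4-R and 0.1 nM for MC1-R. Bound radioactivity was gamma-counted after filtration; values are triplicate means, with results below 0% reported as 0%.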

[3] = target: T1, MC1-R; assay: cAMP functional activity assay in B-16 mouse melanoma cells; format: cell-based; settings: 1 μM concentration where stated
[4] = IV and IP food intake and body weight change, rats; format: in vivo; settings: rat, 10 mg/kg, 24 hours
Experimental: IV and IP food intake and body weight change. Change in food intake and body weight was evaluated for selected compounds. Male Sprague-Dawley rats or male C57BL/6 mice were utilized. Animals were individually housed in conventional plexiglass hanging cages and maintained on a controlled 12 hour on/off light cycle. Water and powdered (LabDiet, 5P00 Prolab RMH 3000) or pelleted (Harlan Teklad 2018 18% Protein Rodent Diet) food was provided ad libitum. For 1 week before treatment, 24-hour food intake and body weight change was recorded to assess a baseline for the group during vehicle treatment. The rats were dosed IV with vehicle or selected compounds (0.5-3 mg/kg, and in some cases up to 10 mg/Kg) or dosed intraperitoneally (IP) with vehicle or selected compounds (0.5-10 mg/kg, and in some cases up to 50 mg/kg). Mice were dosed IP. The changes in body weight and food intake for the 24 hour period after dosing were determined. The changes in body weight and food intake for the 48 hour and 72 hour periods after dosing were also measured to determined reversal of changes in body weight and food intake effects back to baseline levels.

[5] = IP (and IN) food intake, mice; format: in vivo; settings: mouse, IP, 4 hours
Summary of the method: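 Male Sprague-Dawley rats dosed IV (0.5-3, up to 10 mg/kg) or IP (0.5-10, up to 50 mg/kg); male C57BL/6 mice dosed IP. Change in food intake and body weight over 24 h post-dose versus 1-week vehicle baseline, with 48 and 72 h reversal checks.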

[6] = target: T2, MC3-R (Homo sapiens, UniProt P41968); assay: Competitive inhibition assay using [I^125]-NDP-α-MSH, hMC3-R membranes; format: binding; set-up: expressed in transfected cells; settings: 1 μM test compound; read-out: Inhibition at 1 μM (NDP-α-MSH) In Normal System, MC3-R
T2 sequence (P41968 whole entry): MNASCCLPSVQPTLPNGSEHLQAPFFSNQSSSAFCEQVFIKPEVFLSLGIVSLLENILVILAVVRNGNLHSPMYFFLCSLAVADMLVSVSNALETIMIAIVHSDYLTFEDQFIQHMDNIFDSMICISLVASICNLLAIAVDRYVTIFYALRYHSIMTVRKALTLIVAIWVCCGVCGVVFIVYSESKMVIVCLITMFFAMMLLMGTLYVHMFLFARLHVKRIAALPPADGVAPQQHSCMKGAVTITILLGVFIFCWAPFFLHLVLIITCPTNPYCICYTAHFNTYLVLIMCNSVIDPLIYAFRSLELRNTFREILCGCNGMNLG
Summary of the method: as §1

[7] = target: T3, MC5-R (Homo sapiens, UniProt P33032); assay: Competitive inhibition assay using [I^125]-NDP-α-MSH, hMC5-R membranes; format: binding; set-up: expressed in transfected cells; settings: 1 μM test compound; read-out: Inhibition at 1 μM (NDP-α-MSH) In Normal System, MC5-R
T3 sequence (P33032 whole entry): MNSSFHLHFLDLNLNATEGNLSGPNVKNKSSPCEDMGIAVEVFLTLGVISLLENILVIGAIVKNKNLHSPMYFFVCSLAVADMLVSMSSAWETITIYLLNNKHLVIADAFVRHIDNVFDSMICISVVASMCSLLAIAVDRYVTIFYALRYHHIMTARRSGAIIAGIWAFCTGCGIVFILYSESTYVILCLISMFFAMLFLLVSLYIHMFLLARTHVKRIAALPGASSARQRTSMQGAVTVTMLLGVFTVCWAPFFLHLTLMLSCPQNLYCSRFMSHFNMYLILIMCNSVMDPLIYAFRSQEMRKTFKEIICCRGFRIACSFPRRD
Summary of the method: as §1

[8] = target: T4, MC4-R (Homo sapiens, UniProt P32245); assay: cAMP functional activity assay in HEK-293 cells, normal system; format: cell-based; set-up: expressed in transfected cells; host or cells: HEK-293; settings: normal system; 1 μM concentration where stated
T4 sequence (P32245 whole entry): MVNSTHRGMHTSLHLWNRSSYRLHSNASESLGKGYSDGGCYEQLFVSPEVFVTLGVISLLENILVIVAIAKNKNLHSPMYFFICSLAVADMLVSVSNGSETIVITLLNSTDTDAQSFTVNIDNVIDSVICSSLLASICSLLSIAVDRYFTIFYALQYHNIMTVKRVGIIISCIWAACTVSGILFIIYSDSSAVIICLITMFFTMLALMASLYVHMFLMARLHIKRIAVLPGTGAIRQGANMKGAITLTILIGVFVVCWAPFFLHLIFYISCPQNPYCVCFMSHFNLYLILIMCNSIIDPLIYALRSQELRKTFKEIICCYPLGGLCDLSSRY

[9] = target: T2, MC3-R; assay: cAMP functional activity assay in HEK-293 cells; format: cell-based; set-up: expressed in transfected cells; host or cells: HEK-293; settings: 1 μM concentration where stated
[10] = target: T3, MC5-R; assay: cAMP functional activity assay in HEK-293 cells; format: cell-based; set-up: expressed in transfected cells; host or cells: HEK-293; settings: 1 μM concentration where stated
[11] = target: T4, MC4-R; assay: Assay for neutral antagonist, Schild analysis (pA2) against NDP-α-MSH; format: cell-based; set-up: expressed in transfected cells; host or cells: HEK-293; settings: Schild analysis vs NDP-α-MSH; for Kb: read-out: pA2 value as antagonist at MC4-R in a normal system (converted)
Experimental: Assay for Neutral Antagonist. […] These studies were carried out in HEK-293 cells expressing the MC4-R receptor. Cells were incubated with the compounds in the presence of the agonist NDP-α-MSH and the extent of antagonism was measured by the decrease in the level of intracellular cAMP. Screening the compounds for antagonists was done at a single concentration of NDP-α-MSH (1.0 nM) over a compound concentration range of 0.5-5000 nM.
Experimental details were similar to the analysis for agonistic activity described above. Briefly, cells were pre-incubated for 30 minutes with the test compounds at concentrations between 0.5 nM and 5000 nM. The cells were then stimulated with NDP-α-MSH at a concentration of 1 nM for 1 hour. For Schild analysis, the interactions were studied using at least 3 concentrations of the compounds, separated by a log unit, over a full range of the agonist (0.005-5000 nM). cAMP levels was measured in the cell lysates after appropriate dilution. Nonlinear regression analysis with Prism Graph-Pad software was used for Schild analysis and to obtain EC50 values. pA2 values were derived from the Schild plot of the data.

[12] = target: T4, MC4-R; assay: Competitive inhibition assay using [I^125]-NDP-α-MSH, hMC4-R membranes; format: binding; set-up: host or cells: TREx-293 (HEK-293 stably expressing Tet repressor); settings: 1 μM test compound; read-out: Inhibition at 1 μM (NDP-α-MSH) In Normal System, MC4-R
Summary of the method: as §1

[13] = target: T4, MC4-R; assay: cAMP agonist stimulation, low receptor density system (0.1 ng/mL doxycycline); settings: 0.1 ng/mL doxycycline, low receptor density hMC4-R system; NDP-α-MSH maximal cAMP = 1.0
[14] = target: T4, MC4-R; assay: cAMP agonist stimulation, high receptor density system (10 ng/mL doxycycline); settings: for Efficacy/Intrinsic Activity: 10 ng/mL doxycycline, high receptor density hMC4-R system, NDP-α-MSH maximal cAMP = 1.0
[15] = Penile erection induction in male rats; format: in vivo; settings: rat, IV
Summary of the method: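 Male Sprague-Dawley rats (200-250 g), groups of 4-8, dosed IV or ICV at various doses and observed individually for penile erections. Only statistically relevant increases over vehicle-control mean PEs count as induction; IV responses below 1.0 PEs/rat treated as equivocal, some retested ICV.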

[16] = ICV food intake and body weight change; format: in vivo; settings: rat, 1 nmol, 24 hours
Summary of the method: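 Rats fitted with intracerebroventricular cannulas and fed ad libitum got a single ICV dose of vehicle or compound (1-3 nmol). Food intake and body-weight change over the 24 h after dosing were compared with a 1-week vehicle baseline. Values at 48 h and 72 h were also recorded to follow return to baseline.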

Molecule | Penile Erection ICV [1] | Penile Erection IV [1] | inhibition at 1 µM [2] [%] | functional status at MC1-R in cAMP assay [3] | inhibition at 1 µM [6] [%] | inhibition at 1 µM [7] [%] | functional status at MC4-R in cAMP assay [8] | functional status at MC5-R in cAMP assay [10] | Kb [11] [nM] | inhibition at 1 µM [12] [%] | Efficacy/Intrinsic Activity [13] | EC50 [14] [nM] | Efficacy/Intrinsic Activity [14] | Ki [2] [nM] | also measured
cyclo 2,7[Ac-Nle-Asp-His-D-Nal 2-Arg-Trp-Lys]-NH2 [SHU-9119] | No | No | – | – | – | – | – | – | – | – | – | – | – | – | –
C[C@@H]1CN(C(=O)[C@H](N)Cc2ccc(Cl)cc2Cl)[C@@H](CCCNC(=N)N)CN1CCc1ccc2ccccc2c1 [Example 11, N-{3-[1-[2(R)-Amino-3-(2,4-dichloro-phenyl)-propionyl]-5(R)-methyl-4-(2-naphthalen-2-yl-ethyl)-piperazin-2(S)-yl]-propyl}-guanidine] | – | – | 20 | inactive | 72 | 65 | antagonist | inactive | 15.8 | 99 | None | 61 | 0.49 | – | maximal decrease in food intake ([4]; IP): 19%; maximal decrease in food intake ([4]; IV): 87%; maximal decrease in food intake ([5]; 3 mg/kg): 10%; maximal decrease in food intake ([5]; 10 mg/kg): 30%; functional status at MC3-R in cAMP assay [9]: inactive
CC(C)C[C@@H]1CN(C(=O)[C@H](N)Cc2ccc(Cl)cc2Cl)[C@@H](CCCNC(=N)N)CN1CCc1ccc2ccccc2c1 [Example 4, N-{3-[1-[2(R)-Amino-3-(2,4-dichloro-phenyl)-propionyl]-5(R)-isobutyl-4-(2-naphthalen-2-yl-ethyl)-piperazin-2(S)-yl]-propyl}-guanidine] | – | – | 21 | no intrinsic activity (intrinsic activity below 0.1 (10%) is classified as inactive or having no intrinsic activity) | 64 | 75 | no intrinsic activity (intrinsic activity below 0.1 (10%) is classified as inactive or having no intrinsic activity) | partial agonist (intrinsic activity between 0.1 (10%) and 0.7 (70%) is classified as a partial agonist) | 20 | 99 | None | – | None | 1360 | inhibition in vivo at 10 mg/kg ([5]; 10 mg/kg, read-out: maximal decrease in food intake): 60%
N=C(N)NCCC[C@H]1C(=O)N2C(CC[C@@H]2COc2ccc3ccccc3c2)N1C(=O)[C@@H](Cc1ccc(Cl)cc1Cl)NC(=O)[C@@H]1Cc2ccccc2CN1 (stereo partly drawn) [Example 22, (S)-1,2,3,4-Tetrahydro-isoquinoline-3-carboxylic acid {(R)-1-(2,4-dichloro-benzyl)-2-[(2S,5R)-2-(3-guanidino-propyl)-5-(naphthalen-2-yloxymethyl)-3-oxo-hexahydro-pyrrolo[1,2-a]imidazol-1-yl]-2-oxo-ethyl}-amide] | – | – | 75 | – | 88 | 96 | antagonist | – | 7.94 | 100 | None | 64 | 0.30 | 111 | Penile Erection IV [15]: No; penile erection response [15]: no penile erection response; decrease in food intake [16]: 22%
N-{3-[1-[2(R)-Amino-3-(2-methyl, 4-chloro-phenyl)-propionyl]-5(R)-methyl-4-(2-naphthalen-2-yl-ethyl)-piperazin-2(S)-yl]-propyl}-guanidine [Example 26] | – | – | – | – | – | – | no intrinsic activity (intrinsic activity below 0.1 (10%) is classified as inactive or having no intrinsic activity) | – | – | – | – | – | – | – | pA2 value as antagonist at MC4-R in a normal system [11]: 8.3
AGRP (83-132): AgRP (83-132); functional antagonist known not to cause PE response (SSRRCVRLHESCLGQQVPCCDPCATCYCRFFNAFCYCRKLGTAMNPCSRT; ends and bridges not checked; cysteine pairing not given here) [reference compound] | No | No | – | – | – | – | – | – | – | – | None | – | None | – | –

From patent US20090081197A1 (Palatin Technologies, Inc., priority 2007, published 2009)
